Test results from PubChem BioAssay (NCI).
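Five concentrations, 48 hours, 96-well plates. GI50: concentration for 50% inhibition of growth. Definition used: TGI = concentration required for complete inhibition of growth.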

What was measured:
Assay in all cases: NCI tumour cell line growth inhibition, 48 h
T-47D breast = tested on: T-47D breast
HL-60(TB) leukemia = tested on: HL-60(TB) leukemia
OVCAR-3 ovarian = tested on: OVCAR-3 ovarian
ACHN renal = tested on: ACHN renal
HS 578T breast = tested on: HS 578T breast
OVCAR-8 ovarian = tested on: OVCAR-8 ovarian
SF-268 CNS = tested on: SF-268 CNS
COLO 205 colon = tested on: COLO 205 colon
UO-31 renal = tested on: UO-31 renal
HCC-2998 colon = tested on: HCC-2998 colon
SF-539 CNS = tested on: SF-539 CNS
NCI/ADR-RES ovarian = tested on: NCI/ADR-RES ovarian
K-562 leukemia = tested on: K-562 leukemia
LOX IMVI melanoma = tested on: LOX IMVI melanoma
HCT-116 colon = tested on: HCT-116 colon
HOP-62 NSCLC = tested on: HOP-62 NSCLC
SW-620 colon = tested on: SW-620 colon
A498 renal = tested on: A498 renal
U251 CNS = tested on: U251 CNS
NCI-H460 lung = tested on: NCI-H460 lung
UACC-62 melanoma = tested on: UACC-62 melanoma
MOLT-4 leukemia = tested on: MOLT-4 leukemia
SNB-19 CNS = tested on: SNB-19 CNS
A549 NSCLC = tested on: A549 NSCLC
NCI-H226 lung = tested on: NCI-H226 lung
SF-295 CNS = tested on: SF-295 CNS
SR leukemia = tested on: SR leukemia
BT-549 breast = tested on: BT-549 breast
MDA-MB-435 = tested on: MDA-MB-435
RPMI-8226 leukemia = tested on: RPMI-8226 leukemia
HT29 colon = tested on: HT29 colon
NCI-H23 lung = tested on: NCI-H23 lung
SK-MEL-28 melanoma = tested on: SK-MEL-28 melanoma
SK-OV-3 ovarian = tested on: SK-OV-3 ovarian
KM12 colon = tested on: KM12 colon
HCT-15 colon = tested on: HCT-15 colon
IGROV1 ovarian = tested on: IGROV1 ovarian
EKVX NSCLC = tested on: EKVX NSCLC
MALME-3M melanoma = tested on: MALME-3M melanoma
TK-10 renal = tested on: TK-10 renal
PC-3 prostate = tested on: PC-3 prostate
MDA-MB-231 breast = tested on: MDA-MB-231 breast
UACC-257 melanoma = tested on: UACC-257 melanoma
NCI-H522 lung = tested on: NCI-H522 lung
OVCAR-5 ovarian = tested on: OVCAR-5 ovarian
786-0 renal = tested on: 786-0 renal
SK-MEL-5 melanoma = tested on: SK-MEL-5 melanoma
CCRF-CEM leukemia = tested on: CCRF-CEM leukemia
HOP-92 NSCLC = tested on: HOP-92 NSCLC
SN12C renal = tested on: SN12C renal
SNB-75 CNS = tested on: SNB-75 CNS
MCF7 breast = tested on: MCF7 breast
M14 melanoma = tested on: M14 melanoma
RXF 393 renal = tested on: RXF 393 renal
OVCAR-4 ovarian = tested on: OVCAR-4 ovarian
SK-MEL-2 melanoma = tested on: SK-MEL-2 melanoma

CC[C@H](C)[C@H]1NC(=O)[C@@H]([C@H](O)C(C)C)NC(=O)[C@@H](C)N(C)C(=O)[C@H](C)N(C)C(=O)[C@H](CC(C)C)NC(=O)[C@H](CC(C)C)N(C)C(=O)[C@H](C)N(C)C1=O
GI50 (T-47D breast): 164 nM | TGI (T-47D breast): 1150 nM | GI50 (HL-60(TB) leukemia): 995 nM | TGI (HL-60(TB) leukemia): > 14300 nM | GI50 (OVCAR-3 ovarian): 390 nM | TGI (OVCAR-3 ovarian): > 14300 nM | GI50 (ACHN renal): 401 nM | TGI (ACHN renal): > 14300 nM | GI50 (HS 578T breast): 261 nM | TGI (HS 578T breast): 4750 nM | GI50 (OVCAR-8 ovarian): 391 nM | TGI (OVCAR-8 ovarian): > 14300 nM | GI50 (SF-268 CNS): 276 nM | TGI (SF-268 CNS): > 14300 nM | GI50 (COLO 205 colon): 278 nM | TGI (COLO 205 colon): 4390 nM | GI50 (UO-31 renal): 383 nM | TGI (UO-31 renal): > 14300 nM | GI50 (HCC-2998 colon): 531 nM | TGI (HCC-2998 colon): > 14300 nM | GI50 (SF-539 CNS): 409 nM | TGI (SF-539 CNS): 4190 nM | GI50 (NCI/ADR-RES ovarian): 2300 nM | TGI (NCI/ADR-RES ovarian): > 14300 nM | GI50 (K-562 leukemia): 547 nM | TGI (K-562 leukemia): > 14300 nM | GI50 (LOX IMVI melanoma): 416 nM | TGI (LOX IMVI melanoma): > 14300 nM | GI50 (HCT-116 colon): 198 nM | TGI (HCT-116 colon): > 14300 nM | GI50 (HOP-62 NSCLC): 225 nM | TGI (HOP-62 NSCLC): 4260 nM | GI50 (SW-620 colon): 327 nM | TGI (SW-620 colon): > 14300 nM | GI50 (A498 renal): 468 nM | TGI (A498 renal): 5330 nM | GI50 (U251 CNS): 265 nM | TGI (U251 CNS): > 14300 nM | GI50 (NCI-H460 lung): 170 nM | TGI (NCI-H460 lung): 2240 nM | GI50 (UACC-62 melanoma): 331 nM | TGI (UACC-62 melanoma): 4070 nM | GI50 (MOLT-4 leukemia): 512 nM | TGI (MOLT-4 leukemia): > 14300 nM | GI50 (SNB-19 CNS): 266 nM | TGI (SNB-19 CNS): > 14300 nM | GI50 (A549 NSCLC): 257 nM | TGI (A549 NSCLC): > 14300 nM | GI50 (NCI-H226 lung): 456 nM | TGI (NCI-H226 lung): 12400 nM | GI50 (SF-295 CNS): 319 nM | TGI (SF-295 CNS): 9170 nM | GI50 (SR leukemia): 526 nM | TGI (SR leukemia): > 14300 nM | GI50 (BT-549 breast): 436 nM | TGI (BT-549 breast): 8460 nM | GI50 (MDA-MB-435): 376 nM | TGI (MDA-MB-435): > 14300 nM | GI50 (RPMI-8226 leukemia): 446 nM | TGI (RPMI-8226 leukemia): 5970 nM | GI50 (HT29 colon): 257 nM | TGI (HT29 colon): > 14300 nM | GI50 (NCI-H23 lung): 272 nM | TGI (NCI-H23 lung): > 14300 nM | GI50 (SK-MEL-28 melanoma): 223 nM | TGI (SK-MEL-28 melanoma): 1760 nM | GI50 (SK-OV-3 ovarian): 418 nM | TGI (SK-OV-3 ovarian): 11100 nM | GI50 (KM12 colon): 326 nM | TGI (KM12 colon): > 14300 nM | GI50 (HCT-15 colon): 538 nM | TGI (HCT-15 colon): > 14300 nM | GI50 (IGROV1 ovarian): 276 nM | TGI (IGROV1 ovarian): > 14300 nM | GI50 (EKVX NSCLC): 341 nM | TGI (EKVX NSCLC): > 14300 nM | GI50 (MALME-3M melanoma): 286 nM | TGI (MALME-3M melanoma): 10500 nM | GI50 (TK-10 renal): 276 nM | TGI (TK-10 renal): 9720 nM | GI50 (PC-3 prostate): 364 nM | TGI (PC-3 prostate): > 14300 nM | GI50 (MDA-MB-231 breast): 507 nM | TGI (MDA-MB-231 breast): > 14300 nM | GI50 (UACC-257 melanoma): 451 nM | TGI (UACC-257 melanoma): > 14300 nM | GI50 (NCI-H522 lung): 329 nM | TGI (NCI-H522 lung): 4700 nM | GI50 (OVCAR-5 ovarian): 367 nM | TGI (OVCAR-5 ovarian): 13300 nM | GI50 (786-0 renal): 267 nM | TGI (786-0 renal): > 14300 nM | GI50 (SK-MEL-5 melanoma): 516 nM | TGI (SK-MEL-5 melanoma): > 14300 nM | GI50 (CCRF-CEM leukemia): 562 nM | TGI (CCRF-CEM leukemia): > 14300 nM | GI50 (HOP-92 NSCLC): 397 nM | TGI (HOP-92 NSCLC): 12100 nM | GI50 (SN12C renal): 221 nM | TGI (SN12C renal): > 14300 nM | GI50 (SNB-75 CNS): 280 nM | TGI (SNB-75 CNS): > 14300 nM | GI50 (MCF7 breast): 192 nM | TGI (MCF7 breast): > 14300 nM | GI50 (M14 melanoma): 274 nM | TGI (M14 melanoma): 3850 nM | GI50 (RXF 393 renal): 256 nM | TGI (RXF 393 renal): 1900 nM | GI50 (OVCAR-4 ovarian): 409 nM | TGI (OVCAR-4 ovarian): > 14300 nM | GI50 (SK-MEL-2 melanoma): 233 nM | TGI (SK-MEL-2 melanoma): 1270 nM
